Test results taken from patent US8404670B2 (Sunovion Pharmaceuticals Inc., priority 2009, dated 2013).

The molecules below were run against T1, human histamine H3 receptor (Homo sapiens, UniProt Q9Y5N1) (assay: H3 GTPγS assay (SPA method), histamine H3 in vitro assay). Details: GTPγ[35S] binding to membranes of cells expressing human H3; antagonist mode with R-γ-Me-Histamine at EC80 (30 nM); in one embodiment HCl salts tested; read-out: Potency (functional potency as indicated by IC50).
T1 construct: host or cells: cells expressing the human H3 receptor
T1 sequence (Q9Y5N1 whole entry): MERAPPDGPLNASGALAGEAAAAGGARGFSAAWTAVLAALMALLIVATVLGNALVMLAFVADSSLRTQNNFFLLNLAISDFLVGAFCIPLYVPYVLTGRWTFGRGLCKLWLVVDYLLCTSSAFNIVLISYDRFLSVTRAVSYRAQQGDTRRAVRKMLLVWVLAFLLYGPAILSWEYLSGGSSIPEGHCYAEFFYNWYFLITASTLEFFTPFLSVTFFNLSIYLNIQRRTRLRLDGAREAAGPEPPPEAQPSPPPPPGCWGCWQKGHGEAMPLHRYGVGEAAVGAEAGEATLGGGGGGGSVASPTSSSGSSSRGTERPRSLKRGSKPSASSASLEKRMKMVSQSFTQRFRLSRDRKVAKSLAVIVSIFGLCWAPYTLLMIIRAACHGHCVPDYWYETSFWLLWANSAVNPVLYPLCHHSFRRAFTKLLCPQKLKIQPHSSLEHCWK
Type: biochemical
Protocol: H3 GTPγS assay (SPA method) was performed at EuroScreen (Belgium, ES-392-C) using conventional methods. Briefly, cells expressing the human histamine H3 receptor were homogenized in 15 mM Tris-HCl pH 7.5, 2 mM MgCl2, 0.3 mM EDTA, and 1 mM EGTA. Membranes were washed twice in the above tris buffer, collected by centrifugation (40,000×g, 25 min), and re-suspended in 75 mM Tris-HCl pH 7.5, 12.5 mM MgCl2, 0.3 mM EDTA, 1 mM EGTA, and 250 mM sucrose. Membranes were frozen in liquid nitrogen until use. On the day of the assay, membranes were thawed and diluted in assay buffer (20 mM HEPES pH 7.4, 100 mM NaCl, 10 μg/ml saponin, 1 mM MgCl2) to give 500 μg/ml and mixed (v/v) with GDP in assay buffer for a final GDP concentration of 10 μM and incubated on ice for at least 15 min. PVT-WGA beads (Amersham, RPNQ001) were diluted in assay buffer at 50 mg/mL and mixed with GTPγ[^35S] (Amersham, SJ1308) diluted in assay buffer to give ˜25,000 dpm/10 μL and mixed vol/vol just before the start of the reaction. The reaction was started by adding 50 μL of test compound, 20 μL of the membranes:GDP mix, 10 μL of buffer, and 20 μL of the GTPγ[^35S]:beads mix in a 96 well plate Optiplate™ (PerkinElmer, 6005299) covered with topseal (TopCount™, PerkinElmer), mixed with an orbital shaker for 2 min, incubated for 1 hour at room temperature, centrifuged for 10 min at 2000 rpm, incubated for 1 h at room temperature, and counted for 1 min in a TopCount™ reader (PerkinElmer). Dose response curves and IC50 values (concentration to inhibit the reaction by 50%) were calculated by nonlinear regression using XLfit software (IDBS).
For antagonists testing, 10 μL of a reference agonist (R-γ-Me-Histamine) instead of 10 μL buffer was added at a concentration corresponding to the EC80 (30 nM). Control ligands were R-γ-Me-Histamine (Tocris, 0569), Imetit (Sigma, I-135), Thioperamide (Tocris, 0644), and Clobenpropit (Tocris, 0754) diluted in assay buffer.
The compounds provided herein were tested in the histamine H3 in vitro assay. In one embodiment, the respective HCl salts of the compounds provided herein were prepared using standard chemical procedures and tested in the histamine H3 in vitro assay.
With `c1cc2c(cc1CN1CCCC1)nc1n2CCN(C2CCC2)CC1` [Compound 75] the IC50 was ≤ 10 nM. `CN(C)C(=O)c1ccc2c(c1)nc1n2CCN(C2CCC2)CC1` [Compound 57] was tested, and the IC50 was ≤ 1000 nM. With `c1cnc(-c2ccc3c(c2)nc2n3CCN(C3CCC3)CC2)nc1` [Compound 123, 3-cyclobutyl-8-(pyrimidin-2-yl)-2,3,4,5-tetrahydro-1H-benzo[4,5]imidazo[1,2-d][1,4]diazepine] the IC50 was ≤ 100 nM. In the case of `c1ccc(CN2CCN(c3ccc4c(c3)nc3n4CCN(C4CCC4)CC3)CC2)cc1` [Compound 224, 8-(4-benzylpiperazin-1-yl)-3-cyclobutyl-2,3,4,5-tetrahydro-1H-benzo[4,5]imidazo[1,2-d][1,4]diazepine], the IC50 is reported as ≤ 10 nM. `c1cnc(N2CCN(c3ccc4c(c3)nc3n4CCN(C4CCC4)CC3)CC2)cn1` [Compound 233, 3-cyclobutyl-8-(4-(pyrazin-2-yl)piperazin-1-yl)-2,3,4,5-tetrahydro-1H-benzo[4,5]imidazo[1,2-d][1,4]diazepine] was tested, and the IC50 was ≤ 10 nM. For `N#Cc1ccc2nc3n(c2c1)CCN(C1CCC1)CC3` [Compound 82], the IC50 was ≥ 1000 nM. `Cn1cc2ccc(-c3ccc4c(c3)nc3n4CCN(C4CCC4)CC3)cc2n1` [Compound 206, 3-cyclobutyl-8-(2-methyl-2H-indazol-6-yl)-2,3,4,5-tetrahydro-1H-benzo[4,5]imidazo[1,2-d][1,4]diazepine] was tested, and the IC50 was ≤ 100 nM. `N#Cc1ccc(-c2ccc3nc4n(c3c2)CCN(C2CCC2)CC4)cc1` [Compound 41] was tested, and the IC50 was ≤ 1000 nM. In the case of `CN1CCC(N2CCc3nc4cc(-c5ccc(CN)cc5)ccc4n3CC2)CC1` [Compound 16], the IC50 is reported as ≥ 1000 nM. `CC(C1CCC1)N1CCc2nc3cc(-c4ccc(CN)cc4)ccc3n2CC1` (centres unmarked) [Compound 5] was tested, and the IC50 was ≤ 100 nM. For `CN1CCN(c2cncc(-c3ccc4c(c3)nc3n4CCN(C4CCC4)CC3)n2)CC1` [Compound 95, 3-cyclobutyl-9-(6-(4-methylpiperazin-1-yl)pyrazin-2-yl)-2,3,4,5-tetrahydro-1H-[1,4]diazepino[1,7-a]benzimidazole], the IC50 was ≤ 10 nM. With `O=C(C1CCC1)N1CCc2cc3nc4n(c3cc2C1)CCN(C1CCC1)CC4` [Compound 191, cyclobutyl(9-cyclobutyl-3,4,8,9,10,11-hexahydro-1H-[1,4]diazepino[1′,7′:1,2]imidazo[4,5-g]isoquinolin-2 (7H)-yl)methanone] the IC50 was ≤ 100 nM. In the case of `c1cc2nc(-c3ccc4c(c3)nc3n4CCN(C4CCC4)CC3)ccc2[nH]1` [Compound 197, 3-cyclobutyl-8-(1H-pyrrolo[3,2-b]pyridin-5-yl)-2,3,4,5-tetrahydro-1H-benzo[4,5]imidazo[1,2-d][1,4]diazepine], the IC50 is reported as ≤ 10 nM. `CC(=O)Nc1ccc(-c2ccc3nc4n(c3c2)CCN(C2CCC2)CC4)cc1` [Compound 42] was tested, and the IC50 was ≤ 1000 nM. For `c1cc(-c2ccc3c(c2)nc2n3CCN(C3CCC3)CC2)ncn1` [Compound 124, 3-cyclobutyl-8-(pyrimidin-4-yl)-2,3,4,5-tetrahydro-1H-benzo[4,5]imidazo[1,2-d][1,4]diazepine], the IC50 was ≤ 100 nM. `c1cc2c(cc1-n1cnnn1)nc1n2CCN(C2CCC2)CC1` [Compound 154, 3-cyclobutyl-8-(1H-tetrazol-1-yl)-2,3,4,5-tetrahydro-1H-benzo[4,5]imidazo[1,2-d][1,4]diazepine] was tested, and the IC50 was ≤ 100 nM. With `c1cn(-c2ccc3c(c2)nc2n3CCN(C3CCC3)CC2)cn1` [Compound 66] the IC50 was ≤ 10 nM. With `FC1CCCN(c2ccc3c(c2)nc2n3CCN(C3CCC3)CC2)C1` (centres unmarked) [Compound 180, 3-cyclobutyl-8-(3-fluoropiperidin-1-yl)-2,3,4,5-tetrahydro-1H-benzo[4,5]imidazo[1,2-d][1,4]diazepine] the IC50 was ≤ 10 nM. For `CC(C)(C)c1ccc(-c2ccc3c(c2)nc2n3CCN(C3CCC3)CC2)cc1` [Compound 212, 8-(4-(tert-butyl)phenyl)-3-cyclobutyl-2,3,4,5-tetrahydro-1H-benzo[4,5]imidazo[1,2-d][1,4]diazepine], the IC50 was ≤ 10 nM. In the case of `FC(F)(F)c1ccc(-c2ccc3c(c2)nc2n3CCN(C3CCC3)CC2)cc1` [Compound 213, 3-cyclobutyl-8-(4-(trifluoromethyl)phenyl)-2,3,4,5-tetrahydro-1H-benzo[4,5]imidazo[1,2-d][1,4]diazepine], the IC50 is reported as ≤ 100 nM. With `c1ccc(C2CCN(c3ccc4c(c3)nc3n4CCN(C4CCC4)CC3)CC2)cc1` [Compound 227, 3-cyclobutyl-8-(4-phenylpiperidin-1-yl)-2,3,4,5-tetrahydro-1H-benzo[4,5]imidazo[1,2-d][1,4]diazepine] the IC50 was ≤ 100 nM. For `c1coc(-c2cnc3c(c2)nc2n3CCN(C3CCC3)CC2)c1` [Compound 238], the IC50 was ≤ 1000 nM. `Cc1nncn1-c1ccc2c(c1)nc1n2CCN(C2CCC2)CC1` [Compound 157, 3-cyclobutyl-8-(3-methyl-4H-1,2,4-triazol-4-yl)-2,3,4,5-tetrahydro-1H-benzo[4,5]imidazo[1,2-d][1,4]diazepine] was tested, and the IC50 was ≤ 100 nM. `Brc1cnc2c(c1)nc1n2CCN(C2CCC2)CC1` [Compound 235, 7-Aza-3-cyclobutyl-9-bromo-2,3,4,5-tetrahydro-1H-[1,4]diazepino[1,7-a]benzimidazole] was tested, and the IC50 was ≥ 1000 nM. With `NCc1ccc(-c2cnc3c(c2)nc2n3CCN(C3CCC3)CC2)cc1` [Compound 239] the IC50 was ≤ 100 nM. With `CN1CCN(c2cccc(-c3ccc4c(c3)nc3n4CCN(C4CCC4)CC3)n2)CC1` [Compound 136, 3-cyclobutyl-8-(6-(4-methylpiperazin-1-yl)pyridin-2-yl)-2,3,4,5-tetrahydro-1H-benzo[4,5]imidazo[1,2-d][1,4]diazepine] the IC50 was ≤ 100 nM. In the case of `Cc1ccc2nc(C)n(-c3ccc4c(c3)nc3n4CCN(C4CCC4)CC3)c2c1` [Compound 209, 3-cyclobutyl-8-(2,6-dimethyl-1H-benzo[d]imidazol-1-yl)-2,3,4,5-tetrahydro-1H-benzo[4,5]imidazo[1,2-d][1,4]diazepine], the IC50 is reported as ≤ 10 nM. With `c1cc2cc(-c3ccc4nc5n(c4c3)CCN(C3CCC3)CC5)ccc2[nH]1` [Compound 43] the IC50 was ≤ 1000 nM. With `NCc1ccc(-c2ccc3c(c2)nc2n3CCN(Cc3cnc[nH]3)CC2)cc1` [Compound 17] the IC50 was ≥ 1000 nM. For `NCc1ccc2c(c1)nc1n2CCN(C2CCC2)CC1` [Compound 140], the IC50 was ≤ 100 nM. For `CN1Cc2cc3nc4n(c3cc2C1)CCN(C1CCC1)CC4` [Compound 146, 8-cyclobutyl-2-methyl-1,2,3,6,7,8,9,10-octahydro-[1,4]diazepino[1′,7′:1,2]imidazo[4,5-f]isoindole], the IC50 was ≤ 10 nM. `N#Cc1ccc(N2CCN(c3ccc4c(c3)nc3n4CCN(C4CCC4)CC3)CC2)cc1` [Compound 228, 4-(4-(3-cyclobutyl-2,3,4,5-tetrahydro-1H-benzo[4,5]imidazo[1,2-d][1,4]diazepin-8-yl)piperazin-1-yl)benzonitrile] was tested, and the IC50 was ≤ 10 nM. In the case of `Clc1ccc(-c2ccc3c(c2)nc2n3CCN(C3CCC3)CC2)cc1Cl` [Compound 211, 3-cyclobutyl-8-(3,4-dichlorophenyl)-2,3,4,5-tetrahydro-1H-benzo[4,5]imidazo[1,2-d][1,4]diazepine], the IC50 is reported as ≤ 100 nM. For `N#Cc1ccc(OCc2ccc3nc4n(c3c2)CCN(C2CCC2)CC4)nc1` [Compound 112, 6-((3-cyclobutyl-2,3,4,5-tetrahydro-1H-[1,4]diazepino[1,7-a]benzimidazol-8-yl)methoxy)nicotino-nitrile], the IC50 was ≤ 1000 nM. `CC(C)N1CCc2nc3cc(-c4ccc(C#N)cc4)ccc3n2CC1` [Compound 32, 4-(3-isopropyl-2,3,4,5-tetrahydro-1H-[1,4]diazepino[1,7-a]benzimidazol-9-yl)benzonitrile] was tested, and the IC50 was ≤ 100 nM.
